Data taken from US9682957B2 (Theravance Respiratory Company, LLC, priority 2009, dated 2017).
Structures can show the parent of a compound that is named as a salt.

System: MCh-induced bronchoconstriction
Assay: Einthoven assay: bronchoprotection against methacholine (MCh)-induced bronchoconstriction
Type: in vivo
Details: rat, 100 μg by inhalation, 24 h after administration
Experimental: This assay measures the ability of a test compound to provide bronchoprotection against methacholine (MCh)-induced bronchoconstriction in a rat. Male Sprague-Dawley rats (Harlan, Indianapolis, Ind.), weighing between 200 g and 350 g, were used for all studies. Test compound or vehicle (sterile deionized water) were dosed by inhalation (IH) over a 10 min period in a pie shaped inhalation chamber (R+S Molds, San Carlos, Calif.) using 5 mL of dosing solution. […] Rats were dosed with 100 μg of test compound unless otherwise indicated. At predetermined time points, rats were anesthetized with an intraperitoneal (IP) injection of 120 mg/kg inactin (thiobutabarbital). A supplemental dose (40 mg/kg, IP) was administered if the animal responded to physical stimuli (e.g. toe pinch). The surgical site was shaved and a 1-2 cm midline incision of the ventral aspect of the neck was made. The jugular vein was isolated and cannulated with a saline-filled polyethylene catheter (PE-50) to allow IV infusion of MCh. Trachea was dissected free and cannulated with a 14G needle (#NE-014, Small Parts, Miami Lakes, Fla.). After placement of the tracheal cannula, each rat was ventilated using a respirator (Model 683, Harvard Apparatus, Inc., MA) set at a stroke volume of 1 mL/100 g body weight (but not exceeding 2.5 mL volume) and a rate of 90 strokes per minute. A T-connector was placed along the respirator expiratory tubing to allow for measurement of changes in ventilation pressure (VP) using a Biopac transducer that was connected to a Biopac […]) pre-amplifier. Body temperature was maintained at 37° C. using a heating pad. Changes in VP were recorded using the Acknowledge Data Collection Software (Santa Barbara, Calif.). Baseline values were collected for at least 2.5 min. Rats were then challenged with non-cumulative intravenous (IV) infusions of 40 and 80 μg/kg MCh. MCh was infused intravenously for 2.5 minutes from a syringe pump (sp210iw, World Precision Instruments, Inc., Sarasota, Fla.) at a rate of 2 mL/kg/min, with a 2 minute interval between the two doses of MCh. Changes in ventilation pressure (cm H2O) in treated animals are expressed as % inhibition of MCh response relative to control animals. Other bronchoconstrictors, such as histamine and acetylcholine, can be used in place of MCh in this assay. Additionally, guinea pigs can be used instead of rats. […] Inhibition greater than or equal to 30 percent at 24 h is indicative of a long duration of action.

Compound: CC(Cc1cccc(CCNC(=O)Cc2ccc(N(C)C(=O)CCN3CCC(OC(=O)Nc4ccccc4-c4ccccc4)CC3)cc2)c1)NC[C@H](O)c1ccc(O)c2[nH]c(=O)ccc12 (some centres unmarked) [Compound I-85, ditrifluoroacetic acid salt]
- Broncho. at 24 h: Yes (Bronchoprotective effect present at 24 h, e.g., ≧30 % inhibition of the MCh response at 24 h in the rat Einthoven assay (100 μg))

Compound: CC(Cc1ccc(CNC(=O)Cc2ccc(N(C)C(=O)CCN3CCC(OC(=O)Nc4ccccc4-c4ccccc4)CC3)cc2)cc1)NC[C@H](O)c1ccc(O)c2[nH]c(=O)ccc12 (stereo partly drawn) [Compound I-66, Biphenyl-2-ylcarbamic acid 1-[2-({4-[(4-{2-[(R)-2-hydroxy-2-(8-hydroxy-2-oxo-1,2-dihydroquinolin-5-yl)-ethylamino]propyl}benzylcarbamoyl)methyl]phenyl}-methylcarbamoyl)ethyl]piperidin-4-yl ester ditrifluoroacetic acid salt]
- Broncho. at 24 h (ditrifluoroacetic acid salt): No

Compound: CN(CCCCC(=O)Nc1ccc(CNC[C@H](O)c2ccc(O)c3[nH]c(=O)ccc23)cc1)C(=O)CCN1CCC(OC(=O)Nc2ccccc2-c2ccccc2)CC1 [Compound I-14, Biphenyl-2-ylcarbamic Acid 1-(2-{[4-(4-{[(R)-2-hydroxy-2-(8-hydroxy-2-oxo-1,2-dihydroquinolin-5-yl)ethylamino]methyl}phenylcarbamoyl)-butyl]methylcarbamoyl}ethyl)piperidin-4-yl Ester Ditrifluoroacetic Acid Salt]
- Broncho. at 24 h: Yes (Bronchoprotective effect present at 24 h, e.g., ≧30 % inhibition of the MCh response at 24 h in the rat Einthoven assay (100 μg))

Compound: Cc1ccc(C(=O)Nc2ccc(CCNC[C@H](O)c3ccc(O)c4[nH]c(=O)ccc34)cc2)cc1N(C)C(=O)CCN1CCC(OC(=O)Nc2ccccc2-c2ccccc2)CC1 [Compound I-35]
- Broncho. at 24 h: Yes (Bronchoprotective effect present at 24 h, e.g., ≧30 % inhibition of the MCh response at 24 h in the rat Einthoven assay (100 μg))

Compound: Cc1cc(NC(=O)CCCCN(C)C(=O)CCN2CCC(OC(=O)Nc3ccccc3-c3ccccc3)CC2)c(C)cc1CNC[C@H](O)c1ccc(O)c2[nH]c(=O)ccc12 [Compound I-18, Biphenyl-2-ylcarbamic Acid 1-(2-{[4-(4-{[(R)-2-Hydroxy-2-(8-hydroxy-2-oxo-1,2-dihydroquinolin-5-yl)ethylamino]methyl}-2,5-dimethylphenylcarbamoyl)butyl]methylcarbamoyl}ethyl)piperidin-4-yl Ester Ditrifluoroacetic Acid Salt]
- Broncho. at 24 h: Yes (Bronchoprotective effect present at 24 h, e.g., ≧30 % inhibition of the MCh response at 24 h in the rat Einthoven assay (100 μg))

Compound: CN(C(=O)CCN1CCC(OC(=O)Nc2ccccc2-c2ccccc2)CC1)c1cccc(C(=O)Nc2ccc(CCNC[C@H](O)c3ccc(O)c4[nH]c(=O)ccc34)cc2)c1 [Compound I-34, Ditrifluoroacetate]
- Broncho. at 24 h: Yes (Bronchoprotective effect present at 24 h, e.g., ≧30 % inhibition of the MCh response at 24 h in the rat Einthoven assay (100 μg))

Compound: C[C@@H](Cc1cccc(CC(=O)NCCCN(C)C(=O)CCN2CCC(OC(=O)Nc3ccccc3-c3ccccc3)CC2)c1)NC[C@H](O)c1ccc(O)c2[nH]c(=O)ccc12 [Compound I-13, Biphenyl-2-ylcarbamic Acid 1-[2-({3-[2-(3-{(S)-2-[(R)-2-Hydroxy-2-(8-hydroxy-2-oxo-1,2-dihydroquinolin-5-yl)ethylamino]propyl}phenyl)acetylamino]-propyl}methylcarbamoyl)ethyl]piperidin-4-yl Ester Ditrifluoroacetic Acid Salt]
- Broncho. at 24 h: Yes (Bronchoprotective effect present at 24 h, e.g., ≧30 % inhibition of the MCh response at 24 h in the rat Einthoven assay (100 μg))

Compound: CN(CCCC(=O)Nc1cccc(CCNC[C@H](O)c2ccc(O)c3[nH]c(=O)ccc23)c1)C(=O)CCN1CCC(OC(=O)Nc2ccccc2-c2ccccc2)CC1 [Compound I-7, Biphenyl-2-ylcarbamic Acid 1-(2-{[3-(3-{2-[(R)-2-Hydroxy-2-(8-hydroxy-2-oxo-1,2-dihydroquinolin-5-yl)ethylamino]ethyl}phenylcarbamoyl)-propyl]methylcarbamoyl}ethyl)piperidin-4-yl Ester Ditrifluoroacetic Acid Salt]
- Broncho. at 24 h: Yes (Bronchoprotective effect present at 24 h, e.g., ≧30 % inhibition of the MCh response at 24 h in the rat Einthoven assay (100 μg))
